In patent publication US9212210B2, “Akt activity specifically inhibiting polypeptide” (Japan Science and Technology Agency, priority 2003, dated 2015):
Each block holds one substance with its values, some of them ahead of it.

Assays:
[1] = biological target: T1, Akt2 (Homo sapiens, UniProt P31751); assay: Yeast two-hybrid screening, β-Gal lifting assay and quantitative liquid β-Gal assay; format: cell-based; set-up: expressed in transfected cells; host or cells: yeast Y190 cells (Clontech), lithium acetate method; key to β-Gal lifting assay category of interaction with Akt2: 3 h-positive [++]; 8 h-positive [+]; 24 h-negative [−]; details: yeast Y190 cells; for binding to Akt in β-Gal lifting assay and quantitative liquid β-Gal assay: site-directed TCL1 mutants
Method: Y190 cells (Clontech), by using lithium acetate method; and human Akt2 (Akt2/PAS2-1) and TCL1 random library, in accordance with the previous report (Mol. Cell 6:395-407; Proc. Natl. Acad. Sci. USA 94:11534-11539); were expressed in yeast. In the presence of 3-amino-1,2,4-triazole (SIGMA), around […] clones from cDNA library were screened. β-galactosidase (β-Gal) activity in His+ colony was measured by using filter-lift assay. Yeast clones were classified into clone categories: 3 h-positive [++], 8 h-positive [+], and 24 h-negative [−] by the intensity of β-Gal. Ten clones were selected from the each category for sequencing of the nucleotide.
Y190 cells (Clontech) were expressed in yeast together with TCL1 of wild-type, D16G, K30M, Q46R, 174V, or M106V by using Akt2/PAS2-1, with the use of pGAD424 (Clontech) vector. TCL1 mutant was produced by using PCR-based site-directed mutagenesis and/or Quikchange kit (Stratagene). Liquid β-Gal assay was performed for quantitative determination of binding intensity by using ONPG (O-nitrophenyl-β-D-galactoppyranoside; Sigma) (Mol. Cell 6:395-407). The indicated values were determined by western blotting analysis (GAL4 activation domain antibody [Ab]: Clontech), and normalized by expressing transformant in each yeast.
Next, a yeast two-hybrid screening was performed to examine the interaction of each clone with Akt2. Yeast clones were classified into three categories based on the blue-color intensity expressed in β-Gal lifting assay (β-Gal positive [++] at 3 h, β-Gal positive [+] at 8 h, and negative [−]). Nucleotide sequences of the 10 clones in each category were determined.

[2] = biological target: Akt kinase (Homo sapiens, UniProt P31749); assay: In vitro kinase assay of TCL1-induced Akt activation; format: biochemical; details: for Akt kinase activity: dose escalation
Method: This was predominantly correlated with Akt Ser-473 phosphorylation levels. […] D16G TCL1 was evaluated by Akt kinase activity.

[3] = system: T4 cell lines; assay: Cell growth test by MTT (WST-8 reagent) assay; format: cell-based, human; details: T4 cell lines without stimulation, 0-50 μM, 48 hours, WST-8, absorbance at 450 nm
Method: Cell growth test was performed by using MTT assay. That is, in experiments of cell growth by using WST-8 reagent [2-(2-methoxy-4-nitrophenyl)-3-(4-nitrophenyl)-5-(2,4-disulfophenyl)-2H-tetrazolium, monosodium salt]
In this method, 10/24 peptide was pre-treated at 0-50 μM concentration in cell growth test by using T4 cell lines without stimulation, 48 hours later the growth potency was measured by using WST-8 reagent assay, the absorbance at 450 nm was measured by ELISA using a microplate reader (Model 550; BioRad, Tokyo, Japan).

[4] = system: Akt kinase; assay: Binding test by co-immunoprecipitation assay; details: lysate of human 293 cells overexpressing AKT kinase, incubated around 2 hours, western blotting
Method: In this method, AKT kinase was overexpressed in human 293 cells, and the harvested cell lysates was incubated with 10/24 peptide (NH2-AVTDHPDRLWAWEKF-COOH) (SEQ ID NO: 1) for around 2 hours. Further, the treated cell lysates were added agarose beads bound to the specific antibody against an epitope that was fused with Akt, and co-incubated for 2-3 hours. Then, molecules adhered in the cell lysates were immunoprecipitated with agarose beads bound to this antibody, and examined the binding to Akt kinase by using western blotting with specific antibody.

[5] = system: Akt1; assay: Co-immunoprecipitation binding test with Akt subtype Akt1; details: 293 cell lysate, peptide at 400 μM, anti Flag M2 immunoprecipitation, western blotting
Method: (§1) Binding test between 10/24 peptide and Akt subtype molecule: Akt1, Akt2, or Akt3, was performed by using co-immunoprecipitation assay.
(§2) The cell lysate overexpressed Akt kinase in 293 cells (ATCC) i.e., Akt1, Akt2 or Akt3 in pCMV6 was expressed in 293 cells (ATCC) by using calcium phosphate method, and the overexpressed cells were harvested, lysed, and pre-treated with Protein G/A agarose mixture (50% v/v, ProG/A, Pharmacia). Akt or a control peptide (βC) was added to the cell lysate at 400 μM, inoculated with ProG/A for 3 hours at 4° C., and was added anti Flag M2 antibody (Sigma). The resultant immune precipitant was washed, and then were identified the binding to Akt kinase by western blotting (anti-HA antibody, 3F10, Boehringer Mannheim). As shown in the figure, the 10/24 peptide bound to any of the three subtypes of molecules, Akt1, Akt2, and Akt3.

[6] = biological target: T2, Akt3 (Homo sapiens, UniProt Q9Y243); assay: Co-immunoprecipitation binding test with Akt subtype Akt3; details: 293 cell lysate, peptide at 400 μM, anti Flag M2 immunoprecipitation, western blotting
T2 construct: expressed in transfected cells; host or cells: 293 cells (ATCC), calcium phosphate transfection, pCMV6 vector
Method: as §1, §2

[7] = biological target: T3, AKT kinase (unactivated) (Homo sapiens, UniProt P31749); assay: Lipid-protein pull down assay with PIP Beads (PI (3,4,5) P3); format: binding; details: for binding of PIP Beads (PI (3,4,5) P3) to AKT: 1-400 μM peptide, 50 ng AKT kinase, 2 hours at 4° C., western blotting
T3 construct: purchased Upstate Biotechnology #14-279
Method: Lipid-protein pull down assay was performed for 10/24 peptide of TCL1.
Lipid-protein pull down assay was performed by using PIP Beads (PI (3,4,5) P3 Echelon Bioscience Incorporated). 10/24 NH2-AVTDHPDRLWAWEKF-COOH (SEQ ID NO: 1), and βC NH2-EKQHAWLPLTIE-COOH (SEQ ID NO: 22) as a control, were used. After treatment for 2 hours at 4° C. by using 50 ng of AKT kinase (unactivated, Upstate Biotechnology, #14-279), 25 μl of PIP Beads (PI (3,4,5) P3 Echelon Bioscience Incorporated) was added, then washed with fluid containing (10 mM Hepes, pH7.4, 0.25% NP-40, 140 mM NaCl), and western blotting was performed by using Akt antibody (Cell Signaling) (FIG. 8). […] Thus, this is considered to be the inhibition mechanism for Akt activation.

[8] = system: Recombinant Akt protein; assay: In vitro Akt kinase assay with GSK as substrate; format: biochemical; details: 200 μM peptide, reacted 2 hours, phosphorylation 4 minutes at 30° C., western blotting
Method: With the use of the GSK as substrate Akt kinase assay was performed, and inhibition test for Akt activation with 10/24 peptide was performed.
In vitro Akt kinase assay was performed by using kit (Cell Signaling, #9840). Recombinant Akt protein extracted from mammalian cells was mixed with 200 μM concentrations of peptide, and reacted for 2 hours. Phosphorylation was performed for 4 minutes at 30° C. After analyzing the reaction mixture on SDS gels, GSK phosphorylation was determined by western blotting.

[9] = system: Akt in mouse QrSP-11 fibrosarcoma cells; assay: Inhibition of Akt phosphorylation activation in PDGF-stimulated QrSP-11 cells (western blotting); format: cell-based; details: 50 mM peptide for 16 hours, PDGF stimulation
Method: Inhibition effect on Akt activation of AKT phosphorylation (serine 473 residue, threonine 308 residue) of 10/24 peptide and control peptide in mouse QrSP-11 fibrosarcoma cells were examined.
QrSP-11 cells were mixed with 50 mM concentrations of peptide for 16 hours. Then the mixture was stimulated with PDGF (PDGF-AB, Sigma, 3226). The cells were lysed in the presence of phosphatase inhibitor, analyzed on SDS gels, and western blotting was performed by ECL (Amersham) with the use of various antibodies (Cell Signaling; anti-Akt #9272, anti-pThr 308 #9275L, and anti-pSer 473 #9271L). As shown in the figure, in the 10/24 peptide treated cells, phosphorylations of both serine 473 and threonine 308 were inhibited as shown at the right in the figure. That is, phosphorylation inhibition caused by 10/24 peptide was indicated by diluting the black bands at the right compared to the second and forth rows from the left in the figure.

[10] = system: AKT overexpressed in 293 cells; assay: Inhibition of activation and membrane translocation of AKT in 293 cells (confocal microscope); format: cell-based, human; details: PDGF-AB 10 minutes, compared with control peptides
Method: Inhibition effect for the activation and membrane translocation of AKT of 10/24 peptide were tested with the use of 293 cells (ATCC).
[…] of AKT was overexpressed in 293 cells (ATCC) with the use of FuGENE6 (Roche Diagnostics). Sixteen hours later the serum was eliminated, and the cells were stimulated with PDGF-AB (Sigma, #3226) for 10 minutes. The cells were fixed with 4% paraformaldehyde, stained with FITC-conjugated anti-HA antibody (12CA5, MBL) or phospho-Ser 473 antibody (587-F11, Cell Signaling), and observed under the confocal microscope (Nikon).
As shown in the FIG. 10, in the 10/24 treated cells (g-i), the inhibition of the membrane translocation and activation of AKT was identified compared with the control peptides (a-f) (around the cells glowed green or yellow as shown in d or f, while this effect was inhibited in the 10/24 peptide as shown in […] or i. See the figure). That is, from the results of the experiment, it was identified that the 10/24 peptide inhibits the activation at the same time as the translocating of AKT to the membrane in cells. AKT essentially translocates to the cell surface where it is activated, but in the 10/24 peptide treated cells, it was identified that the translocation to membrane and activation of AKT was inhibited.

[11] = system: human T cell leukemia cells (T4); assay: Apoptosis of T4 cells by propidium iodide staining and FACS; format: cell-based
Method: The effect on apoptosis of 10/24 peptide was examined with the use of human T cell leukemia cells (T4).
10/24 peptide (NH2-AVTDHPDRLWAWEKF-COOH) (SEQ ID NO: 1) was pre-treated at 0-30 μM concentrations with the use of T4 cell lines without stimulation, 48 hours later stained with propidium iodide, and the apoptosis was determined by FACS (Beckton Dickinson). Further, to identify the AKT dependency of the anti-tumor effect, myr-AKT (constitutively activated AKT) was overexpressed.

[12] = system: Mouse QrSP-11 fibrosarcoma cells transplanted to C57BL/6 mouse; assay: In vivo anti-tumor effect on transplanted tumor cells; details: injected directly into tumor, 2 μM 3 times a week per mouse, versus control peptide
Method: In vivo anti-tumor effect by 10/24 peptide with the use of the transplanted tumor cells was examined.
Mouse QrSP-11 fibrosarcoma cells was transplanted to abdominal wall of C57BL/6 mouse, and examined the inhibition ? effect on tumor growth by peptide. 10/24 peptide or control peptide was injected directly into tumor cells (2 μM was administered 3 times a week for each mouse, shown by arrows in the figure), the tumor diameters were measured and the volumes were calculated.

[13] = system: Mouse QrSP-11 fibrosarcoma tumors of example 8; assay: Histological examination of peptide treated mouse tumor; format: in vivo
Text: Experimental mouse tumors of example 8 were harvested on the day 9, and histologically examined by macroscopic appearance, hematoxylin-eosin (H&E) staining (an observing method for conditions of cell nucleus and the like), TUNEL (Tdt-mediated dUTP nick end labeling, #MK500, Takara) immunostaining (a histologically identifying method for the way of the atypical death of carcinoma i.e., apoptosis), and phospho Akt (Ser 473) monoclonal antibody (a method for determining 587F11, Cell Signaling, phosphorylation of AKT kinase, and observing the activation).

[14] = biological target: T1, Akt2; assay: Co-immunoprecipitation binding test with Akt subtype Akt2; set-up: expressed in transfected cells; host or cells: 293 cells (ATCC), calcium phosphate transfection, pCMV6 vector; details: 293 cell lysate, peptide at 400 μM, anti Flag M2 immunoprecipitation, western blotting
Method: as §1, §2

T1 sequence (P31751 whole entry): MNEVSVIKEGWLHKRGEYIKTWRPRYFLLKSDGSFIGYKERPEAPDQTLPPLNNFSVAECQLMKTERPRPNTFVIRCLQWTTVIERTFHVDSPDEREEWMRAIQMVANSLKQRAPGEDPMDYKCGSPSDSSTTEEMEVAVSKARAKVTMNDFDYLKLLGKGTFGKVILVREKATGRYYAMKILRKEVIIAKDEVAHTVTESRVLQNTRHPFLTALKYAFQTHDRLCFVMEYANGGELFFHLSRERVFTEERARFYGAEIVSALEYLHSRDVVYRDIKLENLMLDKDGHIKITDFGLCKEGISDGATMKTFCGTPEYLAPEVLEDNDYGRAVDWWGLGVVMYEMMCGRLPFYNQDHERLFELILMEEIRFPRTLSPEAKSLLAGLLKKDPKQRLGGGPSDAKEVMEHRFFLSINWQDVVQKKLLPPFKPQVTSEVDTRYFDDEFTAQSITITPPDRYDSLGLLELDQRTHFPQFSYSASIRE
Sequence of Akt kinase (Homo sapiens, UniProt P31749) (P31749 whole entry): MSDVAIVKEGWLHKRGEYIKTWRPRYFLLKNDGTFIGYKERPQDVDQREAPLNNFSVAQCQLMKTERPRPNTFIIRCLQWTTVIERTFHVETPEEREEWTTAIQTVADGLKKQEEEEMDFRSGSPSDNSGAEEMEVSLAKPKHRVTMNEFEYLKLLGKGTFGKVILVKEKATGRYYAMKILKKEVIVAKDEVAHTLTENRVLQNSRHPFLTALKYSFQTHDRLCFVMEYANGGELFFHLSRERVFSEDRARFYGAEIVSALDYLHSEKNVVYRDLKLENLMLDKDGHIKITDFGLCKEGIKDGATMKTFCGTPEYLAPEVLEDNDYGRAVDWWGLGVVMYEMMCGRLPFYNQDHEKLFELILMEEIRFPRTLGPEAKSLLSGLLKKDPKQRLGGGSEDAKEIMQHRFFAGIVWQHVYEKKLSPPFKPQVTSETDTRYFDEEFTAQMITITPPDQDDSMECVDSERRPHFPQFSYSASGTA
T3 sequence (P31749 whole entry): as above
T2 sequence (Q9Y243 whole entry, species assumed): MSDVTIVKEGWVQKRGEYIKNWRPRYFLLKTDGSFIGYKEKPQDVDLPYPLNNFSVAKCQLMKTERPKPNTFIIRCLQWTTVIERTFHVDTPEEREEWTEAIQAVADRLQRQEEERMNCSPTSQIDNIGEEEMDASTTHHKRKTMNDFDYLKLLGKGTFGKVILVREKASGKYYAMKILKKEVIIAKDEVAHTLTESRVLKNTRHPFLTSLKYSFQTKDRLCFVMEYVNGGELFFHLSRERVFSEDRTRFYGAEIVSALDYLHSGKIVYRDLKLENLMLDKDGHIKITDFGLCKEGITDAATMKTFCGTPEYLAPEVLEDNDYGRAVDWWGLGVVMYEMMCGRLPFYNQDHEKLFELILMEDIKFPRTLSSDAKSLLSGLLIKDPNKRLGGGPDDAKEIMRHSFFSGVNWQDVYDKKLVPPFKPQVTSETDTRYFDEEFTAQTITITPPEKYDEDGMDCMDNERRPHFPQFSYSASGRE

Substance: NH2-AVTDHPDRLWAWEKF-COOH (H-AVTDHPDRLWAWEKF-OH; listed as Homo sapiens) [10/24 peptide, amino acid residue 10-24 of human TCL1]
- cell growth associated with AKT activation [3]: specifically inhibits cell growth
- binding to Akt kinase [4]: specifically binds
- binding to Akt1 [5]: bound
- binding to Akt3 [6]: bound
- mode of inhibition of the binding of Phosphoinositide (PI (3,4,5) P3) to Akt kinase [7]: competitively inhibits
- binding of PIP Beads (PI (3,4,5) P3) to AKT [7]: inhibited in a dose-dependent manner
- phosphorylation potency of Akt for GSK peptide (Akt kinase activity) [8]: effectively inhibited
- phosphorylation of Akt serine 473 [9]: inhibited
- phosphorylation of Akt threonine 308 [9]: inhibited
- membrane translocation of AKT ([10]; anti-HA staining): inhibited
- activation of AKT (phospho-Ser 473 staining) [10]: inhibited
- apoptosis ([11]; T4 cell lines without stimulation, 0-30 μM, 48 hours, compared with control peptide): enhance apoptosis
- apoptosis with myr-AKT (constitutively activated AKT) overexpression ([11]; T4 cells, AKT dependency of the effect): apoptosis was inhibited
- tumor growth (tumor volume) [12]: tumor growth was effectively inhibited
- Akt activation (phospho Akt Ser 473 staining) ([13]; tumors harvested on day 9): inhibition of Akt activation
- apoptosis by H&E staining ([13]; tumors harvested on day 9): increased apoptosis
- cell apoptosis by TUNEL staining ([13]; tumors harvested on day 9): increased cell apoptosis
- tumor size by macroscopic appearance ([13]; tumors harvested on day 9, compared to the control): reduction in tumor size was clearly observed
- binding to Akt2 [14]: bound

Substance: NH2-EKQHAWLPLTIE-COOH (H-EKQHAWLPLTIE-OH; listed as Homo sapiens) [βC, reference compound]
- binding of PIP Beads (PI (3,4,5) P3) to AKT [7]: did not inhibit at all

Substance: Wild-type TCL1: human TCL1 protooncogene protein, co-activator of Akt
- Akt kinase activity [2]: increase in Akt kinase activity
- β-Gal lifting assay category of interaction with Akt2 ([1]; blue-color intensity): ++

Continued, in another order:

- binding to Akt in β-Gal lifting assay and quantitative liquid β-Gal assay [1]: dramatic decrease
Substance: I74V: amino acid-substituted mutant form of TCL1 (I74V)

- GSK-3α phosphorylation and Akt Ser-473 phosphorylation [2]: did not affect
- binding to Akt in β-Gal lifting assay and quantitative liquid β-Gal assay [1]: dramatic decrease
Substance: D16G TCL1: amino acid-substituted mutant form of TCL1 (D16G)
- Akt kinase activity [2]: did not affect the Akt kinase activity
